Reference: patent US20110098325A1, “PYRIDINE BENZAMIDES AND PYRAZINE BENZAMIDES USED AS PKD INHIBITORS” (CANCER RESEARCH TECHNOLOGY LIMITED, priority 2006, published 2011)
Where “and” joins values, the source holds several entries; their conditions need not be identical. Equal entries are not always repeated.

target: T1, Murine PKD1 kinase domain (Mus musculus, UniProt Q62101); assay: PKD1 (Murine Kinase Domain) Enzyme Activity Assay (IMAP fluorescence polarisation); type: biochemical; conditions: 10 μM ATP, 60 minutes, room temperature
T1 construct: hexahistidine (pFastBac HTb leader) (N); made in house; host or cells: Sf9 insect cells, baculovirus (Bac-to-Bac HT, pFastBac HTb)
T1 sequence (Q62101 with tags, fused parts or gaps R683W): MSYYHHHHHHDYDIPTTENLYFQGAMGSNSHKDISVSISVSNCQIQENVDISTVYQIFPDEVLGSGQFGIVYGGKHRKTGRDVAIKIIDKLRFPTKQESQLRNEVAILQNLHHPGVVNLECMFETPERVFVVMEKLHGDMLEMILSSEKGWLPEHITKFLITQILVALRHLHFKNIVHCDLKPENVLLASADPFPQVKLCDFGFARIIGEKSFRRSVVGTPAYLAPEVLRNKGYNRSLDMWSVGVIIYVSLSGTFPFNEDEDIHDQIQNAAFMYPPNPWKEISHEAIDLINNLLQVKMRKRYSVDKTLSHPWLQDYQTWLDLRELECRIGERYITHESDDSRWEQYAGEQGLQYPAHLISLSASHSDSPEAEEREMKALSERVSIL

**Q.** Which IC50 does the source give for `COc1cc(-c2cncc(-c3cccc(C(=O)NCCN(C)C)c3)n2)ccc1O` [X-007, N-(2-Dimethylamino-ethyl)-3-[6-(4-hydroxy-3-methoxy-phenyl)-pyrazin-2-yl]-benzamide] here?
**A.** < 1 µM

**Q.** For `COc1cc(-c2nc(-c3cccc(C(=O)NCCN(C)C)c3)cnc2N)ccc1O` [X-017, 3-[5-Amino-6-(4-hydroxy-3-methoxy-phenyl)-pyrazin-2-yl]-N-(2-dimethylamino-ethyl)-benzamide], which IC50 is on record?
**A.** < 1 µM and 0.012 µM

**Q.** For `COc1cc(-c2cc(-c3cccc(C(=O)NCCN(C)C)c3)cnc2N)ccc1O` [Y-059, 3-[6-Amino-5-(4-hydroxy-3-methoxy-phenyl)-pyridin-3-yl]-N-(2-dimethylamino-ethyl)-benzamide], which IC50 is on record?
**A.** < 1 µM and 0.0085 µM
